From patent US20240182445A1 (ONO PHARMACEUTICAL CO., LTD., priority 2019, published 2024)

Assays:
[1] = target: T1, human TREK-1 (Homo sapiens, UniProt O95069); experiment: TREK-1 Thallium (Tl+) flux assay, Method 1; assay type: cell-based; settings: for IC50: TREK-1 Thallium (Tl+) flux assay; for inhibition at 30 µM: read-out: Tl^+ Assay % inhibition at 30 uM (Minus value indicates activation of TREK-1), CHO-K1 cells stably expressing human TREK-1, minus = activation
T1 construct: expressed in transfected cells
T1 sequence (O95069 1-426): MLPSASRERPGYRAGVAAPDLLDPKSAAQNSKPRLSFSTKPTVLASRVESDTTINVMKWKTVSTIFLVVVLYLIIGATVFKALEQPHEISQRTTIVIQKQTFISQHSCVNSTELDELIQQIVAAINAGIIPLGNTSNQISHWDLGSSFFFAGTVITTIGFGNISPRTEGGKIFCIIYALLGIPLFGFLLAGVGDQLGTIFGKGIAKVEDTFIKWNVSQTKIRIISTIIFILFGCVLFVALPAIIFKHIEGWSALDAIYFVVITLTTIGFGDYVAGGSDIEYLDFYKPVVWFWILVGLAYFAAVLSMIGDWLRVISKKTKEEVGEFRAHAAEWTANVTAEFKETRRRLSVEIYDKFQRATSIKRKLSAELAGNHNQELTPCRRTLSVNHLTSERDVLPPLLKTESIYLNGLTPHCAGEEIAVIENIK
Outline: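 Readout: Thallos fluorescence ratio, taken 25 s post-thallium relative to the pre-thallium baseline average, then converted to % inhibition. Cells were CHO-K1 stably expressing human TREK-1, dye-loaded and exposed to test compound (vehicle 0.3% DMSO) for 10 min prior to thallium stimulation.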

[2] = target: T1, human TREK-1; experiment: TREK-1 Manual Patch Clamp (hMPC) assay; assay type: cell-based; settings: CHO-K1 cells stably expressing human TREK-1; whole-cell current at 0 mV
Description: The term “patch clamp technique” herein refers to the “gold standard” technique for evaluating TREK channel pharmacology. The detail method is described below.
CHO-K1 cells stably expressing human TREK-1 or HEK293 cells stably expressing human TREK-2 are plated on glass coverslips, and voltage clamped in the whole-cell configuration of the patch clamp technique. Cells were voltage clamped at a holding potential of −80 mV and the stepped to 0 mV for 500 msec. The voltage was subsequently ramped from −120 mV to +80 mV over a 500 msec duration. This step-ramp protocol was repeated every 10 sec. The bathing solution contained the following: 135 mM NaCl, 5 mM KCl, 2 mM CaCl2, 1 mM MgCl2, 5 mM D-Glucose, 10 mM HEPES, 10 mM sucrose (adjusted to pH 7.4 with NaOH, 300 mosmol/kg H2O). The pipette solution contained the following: 135 mM KCl, 2 mM MgCl2, 1 mM EGTA, 10 mM HEPES, 2 mM Na2ATP (adjusted to pH 7.35 with KOH, 285 mosmol/kg H2O). Test compounds were dissolved into the bathing solution. Experiments on TREK-2 were terminated with the addition of the control compound (tert-butyl (3-((4-(benzyloxy)-2-methylphenyl)carbamoyl)-4-chlorophenyl)carbamate) so that maximal inhibition could be determined. The effects of test compound on the currents were calculated at 0 mV using the following equations:
For CHO cells expressing TREK-1 channel: % inhibition=(1-post current/pre current)×100
The compounds shown in Table 2 were prepared in an analogous manner with the appropriate starting materials, and evaluated in our TREK-1 Manual Patch Clamp (hMPC) assay.

[3] = values without footnote *12 are Method 1

Molecule | IC50 [1, 3] [µM] | IC50 [2] [µM] | inhibition at 30 µM [1] [%] | IC50 ([1]; no *^12 (Method 2) mark on these rows) [µM]
Cc1cc(C#Cc2ccccc2)cnc1NC(=O)c1c(Cl)cnn1CC1COCCO1 (stereo not shown) [Compound 1, 1-((1,4-dioxan-2-yl)methyl)-4-chloro-N-(3-methyl-5-(phenylethynyl)pyridin-2-yl)-1H-pyrazole-5-carboxamide] | 0.67 | 0.17 | – | –
Cc1cc(C#Cc2ccccc2)cnc1NC(=O)c1c(Cl)cnn1CC1CCOCC1 [Compound 2, 4-chloro-N-(3-methyl-5-(phenylethynyl)pyridin-2-yl)-1-((tetrahydro-2H-pyran-4-yl)methyl)-1H-pyrazole-5-carboxamide] | 0.2 | 0.06 | – | –
Cc1cc(C#Cc2ccccc2)cnc1NC(=O)c1c(Cl)cnn1[C@@H]1CCOC1 [Compound 3, (R)-4-chloro-N-(3-methyl-5-(phenylethynyl)pyridin-2-yl)-1-(tetrahydrofuran-3-yl)-1H-pyrazole-5-carboxamide] | 0.36 | 0.53 | – | –
O=C(Nc1ncc(C#Cc2ccccc2)cc1F)c1c(Cl)cnn1C[C@H]1COCCO1 [Compound 4, (S)-1-((1,4-dioxan-2-yl)methyl)-4-chloro-N-(3-fluoro-5-(phenylethynyl)pyridin-2-yl)-1H-pyrazole-5-carboxamide] | 0.22 | 0.07 | – | –
CC(=O)N1CCC(n2ncc(Cl)c2C(=O)Nc2ncc(C#Cc3ccccc3)cc2C)CC1 [Compound 5, 1-(1-acetylpiperidin-4-yl)-4-chloro-N-(3-methyl-5-(phenylethynyl)pyridin-2-yl)-1H-pyrazole-5-carboxamide] | 0.07 | 0.06 | – | –
CC(=O)N1CCC(n2ncc(Cl)c2C(=O)Nc2ncc(C#Cc3ccccc3)cc2F)CC1 [Compound 6, 1-(1-acetylpiperidin-4-yl)-4-chloro-N-(3-fluoro-5-(phenylethynyl)pyridin-2-yl)-1H-pyrazole-5-carboxamide] | 0.07 | 0.07 | – | –
CC(=O)N1CCC(n2ncc(Cl)c2C(=O)Nc2ncc(C#Cc3ccc(F)cc3)cc2F)CC1 [Compound 7, 1-(1-acetylpiperidin-4-yl)-4-chloro-N-(3-fluoro-5-((4-fluorophenyl)ethynyl)pyridin-2-yl)-1H-pyrazole-5-carboxamide] | 0.14 | 0.03 | – | –
CC(=O)N1CCC(n2ncc(Cl)c2C(=O)Nc2ncc(C#Cc3ccc(F)cc3)cc2C)CC1 [Compound 8, 1-(1-acetylpiperidin-4-yl)-4-chloro-N-(5-((4-fluorophenyl)ethynyl)-3-methylpyridin-2-yl)-1H-pyrazole-5-carboxamide] | 0.2 | 0.09 | – | –
Cc1cc(C#Cc2ccccc2)cnc1NC(=O)c1c(Cl)cnn1C1CCn2nccc2C1 (stereo not shown) [Compound 9, 4-chloro-N-(3-methyl-5-(phenylethynyl)pyridin-2-yl)-1-(4,5,6,7-tetrahydropyrazolo[1,5-a]pyridin-5-yl)-1H-pyrazole-5-carboxamide] | 0.14 | 0.02 | – | –
tert-butyl 4-(4-chloro-5-((3-fluoro-5-(phenylethynyl)pyridin-2-yl)carbamoyl)-1H-pyrazol-1-yl)-2-methylpiperidine-1-caboxylate [Compound 324] | – | – | – | 0.64

Second part, led by results:

IC50 [1, 3] [µM] | IC50 [2] [µM] | inhibition at 30 µM [1] [%] | Molecule | IC50 ([1]; no *^12 (Method 2) mark on these rows) [µM]
0.11 | 0.06 | – | CC(=O)N1CCC(n2ncc(Cl)c2C(=O)Nc2ncc(C#Cc3ccc(F)cc3)cc2C)[C@H](F)C1 (stereo in doubt) [Compound 10, 1-((3R,4R)-1-acetyl-3-fluoropiperidin-4-yl)-4-chloro-N-(5-((4-fluorophenyl)ethynyl)-3-methylpyridin-2-yl)-1H-pyrazole-5-carboxamide] | –
0.12 | 0.1 | – | O=C(Nc1ncc(C#Cc2ccccc2)cc1F)c1c(Cl)cnn1C1CCN(C(=O)C2COCCO2)CC1 (stereo not shown) [Compound 11, 1-(1-(1,4-dioxane-2-carbonyl)piperidin-4-yl)-4-chloro-N-(3-fluoro-5-(phenylethynyl)pyridin-2-yl)-1H-pyrazole-5-carboxamide] | –
0.12 | 0.06 | – | CC(=O)N[C@H]1CC[C@@H](n2ncc(Cl)c2C(=O)Nc2ncc(C#Cc3ccccc3)cc2F)CC1 [Compound 13, 1-(cis-4-acetamidocyclohexyl)-4-chloro-N-(3-fluoro-5-(phenylethynyl)pyridin-2-yl)-1H-pyrazole-5-carboxamide] | –
0.26 | 0.002 | – | CC(=O)N[C@H]1CC[C@@H](n2ncc(Cl)c2C(=O)Nc2ncc(C#Cc3ccc(F)cc3)cc2C)CC1 [Compound 14, 1-(cis-4-acetamidocyclohexyl)-4-chloro-N-(5-((4-fluorophenyl)ethynyl)-3-methylpyridin-2-yl)-1H-pyrazole-5-carboxamide] | –
0.4 | 0.29 | – | CC(=O)N1CCC(F)(Cn2ncc(Cl)c2C(=O)Nc2ncc(C#Cc3ccccc3)cc2C)CC1 [Compound 15, 1-((1-acetyl-4-fluoropiperidin-4-yl)methyl)-4-chloro-N-(3-methyl-5-(phenylethynyl)pyridin-2-yl)-1H-pyrazole-5-carboxamide] | –
0.1 | 0.16 | – | CC(=O)N1CCC([C@H](C)n2ncc(Cl)c2C(=O)Nc2ncc(C#Cc3ccccc3)cc2C)CC1 [Compound 16, (S)-1-(1-(1-acetylpiperidin-4-yl)ethyl)-4-chloro-N-(3-methyl-5-(phenylethynyl)pyridin-2-yl)-1H-pyrazole-5-carboxamide] | –
– | – | -106 | O=C(Nc1ncc(C#Cc2cccs2)cc1F)c1nn(CCC2CCN(C(=O)C3COCCO3)CC2)cc1Cl (stereo not shown) [Compound 448, 1-(2-(1-(1,4-dioxane-2-carbonyl)piperidin-4-yl)ethyl)-4-chloro-N-(3-fluoro-5-(thiophen-2-ylethynyl)pyridin-2-yl)-1H-pyrazole-3-carboxamide] | –
– | – | -99 | Cc1cc(C#Cc2ccccc2)cnc1NC(=O)c1nn(CC2COCCO2)cc1Cl (stereo not shown) [Compound 449, 1-((1,4-dioxan-2-yl)methyl)-4-chloro-N-(3-methyl-5-(phenylethynyl)pyridin-2-yl)-1H-pyrazole-3-carboxamide] | –
– | – | -94 | Cc1cc(C#Cc2cccc(F)c2)cnc1NC(=O)c1nn(CCC2CCN(C(=O)C3CC3)CC2)cc1Cl [Compound 450, 4-chloro-1-(2-(1-(cyclopropanecarbonyl)piperidin-4-yl)ethyl)-N-(5-((3-fluorophenyl)ethynyl)-3-methylpyridin-2-yl)-1H-pyrazole-3-carboxamide] | –
– | – | -79 | Cc1cc(C#Cc2ccc(F)cc2)cnc1NC(=O)c1nn(CCC2CCN(C(=O)C3CC3)CC2)cc1Cl [Compound 451, 4-chloro-1-(2-(1-(cyclopropanecarbonyl)piperidin-4-yl)ethyl)-N-(5-((4-fluorophenyl)ethynyl)-3-methylpyridin-2-yl)-1H-pyrazole-3-carboxamide] | –
– | – | -62 | O=C(Nc1ncc(C#Cc2cccs2)cc1F)c1nn(CCC2CCN(C(=O)C3CC3)CC2)cc1Cl [Compound 452, 4-chloro-1-(2-(1-(cyclopropanecarbonyl)piperidin-4-yl)ethyl)-N-(3-fluoro-5-(thiophen-2-ylethynyl)pyridin-2-yl)-1H-pyrazole-3-carboxamide] | –
– | – | -56 | Cn1ncc2c1CC(n1cc(Cl)c(C(=O)Nc3ncc(C#Cc4ccccc4)cc3F)n1)CC2=O (stereo not shown) [Compound 453, 4-chloro-N-(3-fluoro-5-(phenylethynyl)pyridin-2-yl)-1-(1-methyl-4-oxo-4,5,6,7-tetrahydro-1H-indazol-6-yl)-1H-pyrazole-3-carboxamide] | –
